Results taken from patent US20240279174A1, “ANTIBIOTICS COMPRISING LPXH-TARGETING COMPOUNDS AND METHODS OF MAKING AND USING THE SAME” (Duke University, priority 2019, published 2024).
Converted amounts (≈) assume the structure as drawn. Where two headings read alike, the source gives them in different places.

Columns and labels:
[1] = test system: K. pneumoniae (ATCC 10031); assay: MIC assay (broth microdilution), K. pneumoniae; assay type: cell-based; details: Klebsiella pneumoniae, ATCC10031
Method: The MIC assay protocol was adapted from the broth microdilution methods described by the National Committee for Clinical Laboratory Standards using 96-well plates as described previously. In brief, overnight bacterial cultures were diluted to an OD600 of 0.006 in cation-adjusted Mueller-Hinton medium containing 7% DMSO and incubated at 37° C. for 22 h in the presence of varying concentrations of inhibitors. Following overnight incubation, each well is treated with 10 μL of 3-(4,5-dimethylthiazol-2-yl)-2,5-diphenyltetrazolium bromide (MTT, 5 mg/mL) for 3 h. Finally, the culture is solubilized by addition of 2-propanol, and the results are read by taking the difference of the UV reading at both 570 and 690 nm. MIC values were reported as the lowest compound concentration that inhibited bacterial growth. The baseline for inhibited cell growth was determined to be <4× the average control reading due to the baseline optical density of the initial starting bacterial culture.

[2] = target: K. pneumoniae LpxH (KpLpxH) (Klebsiella pneumoniae subsp. pneumoniae (strain ATCC 700721 / MGH 78578), UniProt A6T5R0); assay: LpxE-coupled malachite green LpxH activity assay (KpLpxH inhibition); assay type: biochemical; details: for remaining activity at 0.1 µM / inhibition at 0.1 µM / Percentage Activity of KpLpxH (vi/v0): 0.1 μM inhibitor; for remaining activity at 0.1 µM / Percentage Activity of KpLpxH (vi/v0): normalized against KpLpxH activity in 10% DMSO; for remaining activity at 0.1 µM: read-out: Percentage Activity of KpLpxH (vi/v0); for inhibition at 0.1 µM: read-out: Percentage Inhibition of KpLpxH
Method: Evaluation of LpxH inhibition by analogs: After completing the synthesis of sulfonyl piperazine compounds with various forms of linkers, the KpLpxH inhibition was biochemically characterized by these analogs at 0.1 μM using the nonradioactive, colorimetric malachite green assay that we had previously reported. […] Such an enhanced potency requires the presence of the hydroxamate group, as its substitution with a carboxylate group in compound 7 reduced the compound activity (vi/v0=30±6%).
The LpxE-coupled LpxH activity assay was conducted as described previously using the GB1-K. pneumoniae LpxH-His10 fusion protein. Briefly, two reaction mixtures were prepared. Mixture 1 contains 20 mM Tris-HCl (pH 8.0), 0.5 mg/mL BSA, 0.02% Triton X-100, 1 mM MnCl2, 1 mM DTT, 10% DMSO, and 200 µM substrate (UDP-DAGn), and mixture 2 is comprised of the same buffer, but instead of substrate, contains both LpxH (20 ng/ml) and 2× inhibitor. These mixtures were then pre-incubated at 37° C. for 10 min. To initiate the reaction, an equal volume of the LpxH mixture (mixture 2) was added to the substrate mixture (mixture 1) at 37° C. The final reaction solution contains 100 μM substrate, 10 ng/ml enzyme, and 1× inhibitor. At the desired reaction time points, an aliquot of 20 μL reaction mixture was removed and added to a well in 96-well half-area plate containing 5 mM EDTA (final concentration) to quench the LpxH reaction. Purified Aquifex aeolicus LpxE was then added to a final concentration of 5 μg/mL. The plate was incubated at 37° C. for 30 min followed by addition of formic acid to a final concentration of 3.75 M to quench the LpxE reaction. The malachite green reagent (Sigma Aldrich, catalog MAK307) was diluted 5-fold into the solutions, and the plate was incubated for 30 min at room temperature before the absorbance at 620 nm was measured. All measurements were done in triplicates, and standard error (S.E.) was calculated.

[3] = Table 4, read-out: MIC - K. pneumoniae (ATCC 10031)
[4] = Table 5, read-out: IC50: Average
[5] = K. pneumoniae (ATCC 10031), in vitro, read-out: MIC

MIC [1, 3] [µg/mL]	IC50 [2, 4] [nM]	Compound	other results
3 (≈ 6.36 µM)	139	CC(=O)N1CCc2cc(S(=O)(=O)N3CCN(c4cc(F)cc(C(F)(F)F)c4)CC3)ccc21 [JH-LPH-28]	
10.7 (≈ 18.5 µM)	73	O=C(CCCCNC(=O)Nc1ccc(S(=O)(=O)N2CCN(c3cc(Cl)cc(C(F)(F)F)c3)CC2)cc1)NO [JH-LPH-41]	remaining activity at 0.1 µM [2]: 36%; inhibition at 0.1 µM [2]: 64%
> 64		CC(=O)n1ccc2cc(S(=O)(=O)N3CCN(c4cc(Cl)cc(C(F)(F)F)c4)CC3)ccc21 [JH-LPH-42]	
> 64		CS(=O)(=O)N1CCc2cc(S(=O)(=O)N3CCN(c4cc(Cl)cc(C(F)(F)F)c4)CC3)ccc21 [JH-LPH-47]	
> 64	49	CC(=O)N1CCc2cc(S(=O)(=O)N3CCN(c4cc(Br)cc(C(F)(F)F)c4)CC3)ccc21 [JH-LPH-48]	
18.7 (≈ 39.9 µM)	152	CC(=O)N1CCc2cc(S(=O)(=O)N3CCN(c4cc(C)cc(C(F)(F)F)c4)CC3)ccc21 [JH-LPH-49]	
> 64		O=C(NCCn1cc(C(=O)O)nn1)Nc1ccc(S(=O)(=O)N2CCN(c3cc(Cl)cc(C(F)(F)F)c3)CC2)cc1 [JH-LPH-61]	
24 (≈ 38.9 µM)		O=C(NCCn1cc(C(=O)NO)nn1)Nc1ccc(S(=O)(=O)N2CCN(c3cc(Cl)cc(C(F)(F)F)c3)CC2)cc1 [JH-LPH-62]	Percentage Activity of KpLpxH (vi/v0) ([2]; listed as 20 (JH-LPH-62)): 59 ± 7%; remaining activity at 0.1 µM [2]: 59 ± 7%; inhibition at 0.1 µM [2]: 41%
20 (≈ 33.9 µM)		O=C(/C=C/CCCNC(=O)Nc1ccc(S(=O)(=O)N2CCN(c3cc(Cl)cc(C(F)(F)F)c3)CC2)cc1)NO [JH-LPH-64]	Percentage Activity of KpLpxH (vi/v0) ([2]; listed as 18 (JH-LPH-64)): 34 ± 7%; remaining activity at 0.1 µM [2]: 34 ± 7%; inhibition at 0.1 µM [2]: 66%
12 (≈ 20.3 µM)	13	O=C(CCCCCCC(=O)Nc1ccc(S(=O)(=O)N2CCN(c3cc(Cl)cc(C(F)(F)F)c3)CC2)cc1)NO [JH-LPH-65]	
26.7 (≈ 45.3 µM)		O=C(CC/C=C/CCC(=O)Nc1ccc(S(=O)(=O)N2CCN(c3cc(Cl)cc(C(F)(F)F)c3)CC2)cc1)NO [JH-LPH-66]	
28 (≈ 43.5 µM)		O=C(CCCCCCC(O)Cn1cncn1)Nc1ccc(S(=O)(=O)N2CCN(c3cc(Cl)cc(C(F)(F)F)c3)CC2)cc1 (stereo not drawn) [JH-LPH-68]	
4 (≈ 7.31 µM)	79	O=C(CN1CCOCC1)Nc1ccc(S(=O)(=O)N2CCN(c3cc(Cl)cc(C(F)(F)F)c3)CC2)cc1 [JH-LPH-69]	
10.7 (≈ 18.6 µM)	62	O=C(CN1CCOCC1)N1CCc2cc(S(=O)(=O)N3CCN(c4cc(Cl)cc(C(F)(F)F)c4)CC3)ccc21 [JH-LPH-70]	
8 (≈ 15.9 µM)		NCC(=O)N1CCc2cc(S(=O)(=O)N3CCN(c4cc(Cl)cc(C(F)(F)F)c4)CC3)ccc21 [JH-LPH-71]	
> 64		CN(C)CC(=O)N1CCc2cc(S(=O)(=O)N3CCN(c4cc(Cl)cc(C(F)(F)F)c4)CC3)ccc21 [JH-LPH-72]	
0.67 (≈ 1.37 µM)	37	NC(=O)N1CCc2cc(S(=O)(=O)N3CCN(c4cc(Cl)cc(C(F)(F)F)c4)CC3)ccc21 [JH-LPH-73]	
> 64		O=C(CCCn1cc(C(=O)Nc2ccc(S(=O)(=O)N3CCN(c4cc(Cl)cc(C(F)(F)F)c4)CC3)cc2)nn1)NO [JH-LPH-74]	
> 64		CS(=O)(=O)Nc1ccc(S(=O)(=O)N2CCN(c3cc(Cl)cc(C(F)(F)F)c3)CC2)cc1 [JH-LPH-77]	
	37	O=C(COCc1ccc2nonc2c1)N1CCc2cc(S(=O)(=O)N3CCN(c4cc(Cl)cc(C(F)(F)F)c4)CC3)ccc21 [JH-LPH-79]	
	431	O=C(NO)c1ccc(-c2ccccc2C(=O)Nc2ccc(S(=O)(=O)N3CCN(c4cc(Cl)cc(C(F)(F)F)c4)CC3)cc2)cc1 [JH-LPH-80]	

Continued, compound first:

Compound	MIC [1, 3] [µg/mL]	IC50 [2, 4] [nM]	other results
O=C(CCCCNC(=O)N1CCc2cc(S(=O)(=O)N3CCN(c4cc(Cl)cc(C(F)(F)F)c4)CC3)ccc21)NO [JH-LPH-45]	18.7 (≈ 30.9 µM)	17	MIC [1, 5]: 18.7 µg/mL (≈ 31 µM); IC50 [2]: 18 nM; Ki [2]: 7.3 nM; Percentage Activity of KpLpxH (vi/v0) ([2]; listed as 8 (JH-LPH-45)): 18 ± 1%; remaining activity at 0.1 µM [2]: 18 ± 1%; inhibition at 0.1 µM [2]: 82%
O=C(CCCCCC(=O)N1CCc2cc(S(=O)(=O)N3CCN(c4cc(Cl)cc(C(F)(F)F)c4)CC3)ccc21)NO [JH-LPH-46]			Percentage Activity of KpLpxH (vi/v0) ([2]; listed as 10 (JH-LPH-46)): 93 ± 7%; remaining activity at 0.1 µM [2]: 93 ± 7%; inhibition at 0.1 µM [2]: 7%
O=C(CCCCCNC(=O)Nc1ccc(S(=O)(=O)N2CCN(c3cc(Cl)cc(C(F)(F)F)c3)CC2)cc1)NO [JH-LPH-50]	3.33 (≈ 5.62 µM)	8	MIC [1, 5]: 3.3 µg/mL (≈ 5.57 µM); Ki [2]: 3.1 nM; Percentage Activity of KpLpxH (vi/v0) ([2]; listed as 13 (JH-LPH-50)): 3 ± 2%; remaining activity at 0.1 µM [2]: 3 ± 2%; inhibition at 0.1 µM [2]: 97%; IC50 ([2]; IC50 curves FIG. 3E/4E, read-out: IC50 of KpLpxH inhibition): 7.7 nM
O=C(O)CCCCCNC(=O)Nc1ccc(S(=O)(=O)N2CCN(c3cc(Cl)cc(C(F)(F)F)c3)CC2)cc1 [JH-LPH-54]			Percentage Activity of KpLpxH (vi/v0) ([2]; listed as 12 (JH-LPH-54)): 57 ± 3%; remaining activity at 0.1 µM [2]: 57 ± 3%; inhibition at 0.1 µM [2]: 43%
O=C(O)CCCCNC(=O)N1CCc2cc(S(=O)(=O)N3CCN(c4cc(Cl)cc(C(F)(F)F)c4)CC3)ccc21 [JH-LPH-55]			Percentage Activity of KpLpxH (vi/v0) ([2]; listed as 7 (JH-LPH-55)): 30 ± 6%; remaining activity at 0.1 µM [2]: 30 ± 6%; inhibition at 0.1 µM [2]: 70%
O=C(NCCCCc1cccn(O)c1=S)Nc1ccc(S(=O)(=O)N2CCN(c3cc(Cl)cc(C(F)(F)F)c3)CC2)cc1 [JH-LPH-60]			Percentage Activity of KpLpxH (vi/v0) ([2]; listed as 15 (JH-LPH-60)): 39 ± 6%; remaining activity at 0.1 µM [2]: 39 ± 6%; inhibition at 0.1 µM [2]: 61%
NC(=O)N1CCc2cc(S(=O)(=O)N3CCN(c4cc(Cl)cc(C(F)(F)F)c4)CC3)c(F)cc21 [JH-LPH-75]	> 64		
NC(=O)N1CCc2cc(S(=O)(=O)N3CCN(c4cc(Cl)cc(C(F)(F)F)c4)CC3)c(Cl)cc21 [JH-LPH-76]	> 64		
CC(=O)N1CCc2cc(S(=O)(=O)N3CCN(C4CCCCC4)CC3)ccc21 [JH-LPH-81]	32 (≈ 81.7 µM)		
CCOC(=O)c1ccc(N2CCN(S(=O)(=O)c3ccc4c(c3)CCN4C(C)=O)CC2)cc1 [JH-LPH-82]	> 64		
C/C=C/CN1CCN(S(=O)(=O)c2ccc3c(c2)CCN3C(C)=O)CC1 [JH-LPH-83]	64 (≈ 176 µM)		
CCCCN1CCN(S(=O)(=O)c2ccc3c(c2)CCN3C(C)=O)CC1 [JH-LPH-84]	32 (≈ 87.6 µM)		
CC(=O)N1CCc2cc(S(=O)(=O)N3CCN(c4nc(C(F)(F)F)cs4)CC3)ccc21 [JH-LPH-85]	12 (≈ 26.1 µM)		
CC(=O)N1CCc2cc(S(=O)(=O)N3CCN(c4cc(C(F)(F)F)ccn4)CC3)ccc21 [JH-LPH-86]	0.125 (≈ 0.275 µM)		
NC(=O)N1CCc2cc(S(=O)(=O)N3CCN(c4cc(C(F)(F)F)ccn4)CC3)ccc21 [JH-LPH-91]	0.125 (≈ 0.274 µM)	105	
CC(=O)N1CCc2cc(S(=O)(=O)N3CCN(c4cc(C(F)(F)F)cc(Cl)n4)CC3)ccc21 [JH-LPH-92]	0.063 (≈ 0.129 µM)	5	
NC(=O)N1CCc2cc(S(=O)(=O)N3CCN(c4cccc(C(F)(F)F)n4)CC3)ccc21 [JH-LPH-94]	> 64		
NCCNC(=O)N1CCc2cc(S(=O)(=O)N3CCN(c4cc(C(F)(F)F)cc(Cl)n4)CC3)ccc21 [JH-LPH-95]	4 (≈ 7.51 µM)		
NCCCNC(=O)N1CCc2cc(S(=O)(=O)N3CCN(c4cc(C(F)(F)F)cc(Cl)n4)CC3)ccc21 [JH-LPH-98]		24	
NCCCCNC(=O)N1CCc2cc(S(=O)(=O)N3CCN(c4cc(C(F)(F)F)cc(Cl)n4)CC3)ccc21 [JH-LPH-99]		11	
